Reference: patent US7030137B2, “Substituted thiophenes with antibacterial activity” (Replidyne, Inc., priority 2003, dated 2006)
Values after ≈ are worked out from the molar mass of the structure shown. Where a name gives a salt, the structure may show the parent alone.

Key:
[1] = tested on: H. influenzae; assay: MIC H. influenzae (standard MIC assay modified by inclusion of cyclodextrin); format: cell-based; settings: Haemophilus influenzae
Protocol: (§1) Compounds of the present invention were assayed for antibacterial activity against a range of pathogenic organisms (strains of S aureus, S pneumoniae, E faecalis, H influenzae and M catarrhalis) in a standard MIC assay modified by the inclusion of cyclodextrin, to assist with solubility.

[2] = tested on: S. aureus; assay: MIC S. aureus (standard MIC assay modified by inclusion of cyclodextrin); format: cell-based; settings: Staphylococcus aureus
Protocol: as §1

[3] = tested on: S. aureus, S. pneumoniae, and E. faecalis; assay: MIC against some strains of gram positive pathogens; format: cell-based
Protocol: as §1

[4] = tested on: S. pneumo; assay: MIC S. pneumo (standard MIC assay modified by inclusion of cyclodextrin); format: cell-based; settings: Streptococcus pneumoniae
Protocol: as §1

[5] = target: T1, recombinant H. influenzae MRS (Haemophilus influenzae, UniProt P43828); assay: Enzyme Inhibition (H. influenzae MRS) aminoacylation assay; format: biochemical; settings: read-out: IC50 against H. influenzae MRS
T1 construct: made in house
Protocol: 2. Enzyme Inhibition (H. influenzae MRS)—aminoacylation assay
Compounds of the present invention may be assayed for their ability to inhibit the enzyme methionyl tRNA synthetase (MRS), using recombinant H. influenzae MRS(R. D. Fleischmann et al., Science, 269, 496–512, 1995), as follows:
The reaction is started by adding 20 μl appropriately diluted pure enzyme (pre-incubated with inhibitor) to 25 μl reaction mix for 10 min at room temperature. The reaction is terminated by the addition of 150 μl 167 mM sodium citrate, pH 2.15 containing phosphodiesterase (PDE) SPA beads (0.833 mg/ml). The binding of the radiolabelled product to the bead brings the isotope into close enough proximity to allow radiation from the tritium to excite the scintillant within the bead. Any unbound radiolabel is not close enough to the scintillant to allow this energy transfer, so no signal is generated. Following termination of the reaction, plates are spun at 2500 rpm for 5 min in a Mistral 3000E plate centrifuge (or alternatively allowed to stand for 1 hour). The assay is conducted in 96-well Optiplates (Packard). Plates are counted on a TopCount. (Packard 96 well counter).
Mixed E. coli MRE 600 tRNA and ATP were purchased from Boehringer-Mannheim, L-[methyl-^3H]methionine and phosphodiesterase scintillation proximity (SPA) beads from Amersham Pharmacia Biotech and other reagents from Sigma.

[6] = tested on: M catarrhalis and H. influenzae; assay: MIC against some strains of gram negative pathogens; format: cell-based; settings: Haemophilus influenzae
Protocol: as §1

[7] = prior art thiophenes of U.S. Pat. No. 6,320,051

T1 sequence (P43828 whole entry): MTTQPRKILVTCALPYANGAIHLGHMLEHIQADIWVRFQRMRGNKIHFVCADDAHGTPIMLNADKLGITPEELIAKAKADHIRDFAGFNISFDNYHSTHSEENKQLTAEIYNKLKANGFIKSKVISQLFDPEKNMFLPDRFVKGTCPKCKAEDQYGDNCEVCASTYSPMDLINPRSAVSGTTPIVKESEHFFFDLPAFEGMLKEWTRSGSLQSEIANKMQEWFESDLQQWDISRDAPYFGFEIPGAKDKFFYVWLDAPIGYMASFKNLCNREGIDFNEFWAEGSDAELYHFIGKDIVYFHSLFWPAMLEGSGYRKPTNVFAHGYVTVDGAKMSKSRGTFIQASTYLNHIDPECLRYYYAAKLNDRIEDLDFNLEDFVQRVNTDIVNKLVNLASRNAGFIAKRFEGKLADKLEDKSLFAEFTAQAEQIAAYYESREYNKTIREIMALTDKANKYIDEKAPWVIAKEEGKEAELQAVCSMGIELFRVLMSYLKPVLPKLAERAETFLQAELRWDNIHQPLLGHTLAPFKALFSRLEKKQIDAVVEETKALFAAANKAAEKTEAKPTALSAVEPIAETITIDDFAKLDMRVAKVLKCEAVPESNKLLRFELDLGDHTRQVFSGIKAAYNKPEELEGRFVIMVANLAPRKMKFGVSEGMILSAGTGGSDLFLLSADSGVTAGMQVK

SMILES | MIC [1] [µg/mL] | MIC [2] [µg/mL] | MIC [3] [µg/mL] | MIC [4] [µg/mL] | IC50 [5] [nM] | MIC [1, 7] [µg/mL] | MIC [2, 7] [µg/mL] | MIC [4, 7] [µg/mL] | MIC [6] [µg/mL]
Cc1c(CNCCCNc2nc(=O)c3sccc3[nH]2)sc(Br)c1Br [Example 25, N-(4,5-Dibromo-3-methylthiophen-2-ylmethyl)-N′-(1H-thieno [3,2-d]pyrimidin-4-one)propane-1,3-diamine] | 32 (≈ 65 µM) | 0.5 (≈ 1.02 µM) | 0.06 to 0.5 (≈ 0.122 to 1.02 µM) | 2 (≈ 4.06 µM) | ≤ 200 | – | – | – | –
C#Cc1sc(CNCCCNc2nc3nnccc3[nH]2)c(C)c1Br [Example 15, N-(4-bromo-5-ethynyl-3-methylthiophen-2-ylmethyl)-N′-(5H-imidazo[4,5-c]pyridazin-6-yl)propane-1,3-diamine dihydrochloride] | 0.5 | 1 | 1 to 2 | 0.5 | – | – | – | – | 0.13 to 8
Cc1c(CNCCCNc2nc3ncccc3[nH]2)sc(C(F)F)c1Br [Example 16, N-(4-bromo-5-difluoromethyl-3-methylthiophen-2-ylmethyl)-N′-(1H-imidazo[4,5-b]pyridin-2-yl)-propane-1,3-diamine] | 64 (≈ 149 µM) | 0.5 (≈ 1.16 µM) | 0.06 to 0.5 (≈ 0.139 to 1.16 µM) | 4 (≈ 9.3 µM) | – | – | – | – | –
C=Cc1sc(CNCCCNc2nc3nnccc3[nH]2)c(C)c1Br [Example 13, N-(4-bromo-3-methyl-5-vinylthiophen-2-ylmethyl)-N′-(5H-imidazo[4,5-c]pyridazin-6-yl)propane-1,3-diamine dihydrochloride] | 2 | 0.5 | 0.06 to 0.5 | 2 | – | – | – | – | 0.13 to 8
O=c1cc(NC[C@H]2CCC[C@@H]2NCc2cc(Br)c(Br)s2)[nH]c2ccccc12 [Example 74] | – | – | – | – | – | > 64 | 2 (≈ 3.91 µM) | 2 (≈ 3.91 µM) | –
Cc1c(CNCCCNc2nc3cscc3[nH]2)sc(C(F)F)c1Br [Example 19, N-(4-Bromo-5-difluoromethyl-3-methylthiophen-2-ylmethyl)-N′-(1H-thieno[3,4-d]imidazol-2-yl)propane-1,3-diamine] | 16 (≈ 36.8 µM) | 0.13 (≈ 0.299 µM) | 0.06 to 0.5 (≈ 0.138 to 1.15 µM) | 0.5 (≈ 1.15 µM) | – | – | – | – | –
Cc1c(CNCCCNc2nc3nnccc3[nH]2)sc(C2CC2)c1Br [Example 11, N-(4-Bromo-5-cyclopropyl-3-methylthiophen-2-ylmethyl)-N′-(5H-imidazo[4,5-c]pyridazin-6-yl)propane-1,3-diamine dihydrochloride] | 2 | 2 | 1 to 2 | 8 | – | – | – | – | 0.13 to 8
C=C(F)c1sc(CNCCCNc2nc3nnccc3[nH]2)c(C)c1Br [Example 14, N-(4-bromo-5-(1-fluorovinyl)-3-methylthiophen-2-ylmethyl)-N′-(5H-imidazo[4,5-c]pyridazin-6-yl)propane-1,3-diamine dihydrochloride] | 0.13 | 0.25 | 0.06 to 0.5 | 0.25 | – | – | – | – | 0.13 to 8
Cc1c(CNCCCNc2nc3nnccc3[nH]2)sc(C(F)(F)F)c1Br [Example 12, N-(4-bromo-3-methyl-5-trifluoromethylthiophen-2-ylmethyl)-N′-(5H-imidazo[4,5-c]pyridazin-6-yl)propane-1,3-diamine dihydrochloride] | 0.25 | 0.5 | 0.06 to 0.5 | 2 | – | – | – | – | 0.13 to 8
Cc1c(CNCCCNc2nc3cscc3[nH]2)sc(C(F)(F)F)c1Br [Example 20, N-(4-Bromo-3-methyl-5-trifluoromethylthiophen-2-ylmethyl)-N′-(1H-thieno[3,4-d]imidazol-2-yl)propane-1,3-diamine] | 16 (≈ 35.3 µM) | 0.25 (≈ 0.551 µM) | 0.06 to 0.5 (≈ 0.132 to 1.1 µM) | 0.5 (≈ 1.1 µM) | – | – | – | – | –

Further lines, with some results ahead:

MIC [1] [µg/mL] | MIC [2] [µg/mL] | MIC [3] [µg/mL] | MIC [4] [µg/mL] | IC50 [5] [nM] | MIC [1, 7] [µg/mL] | MIC [2, 7] [µg/mL] | MIC [4, 7] [µg/mL] | SMILES | MIC [6] [µg/mL]
8 (≈ 17.4 µM) | 0.06 (≈ 0.13 µM) | 0.06 to 0.5 (≈ 0.13 to 1.09 µM) | 0.25 (≈ 0.543 µM) | – | – | – | – | CC=Cc1c(CNCCCNc2cc(=O)c3ccccc3[nH]2)sc(CC)c1Br [Example 10, N-(4-bromo-3-(1-propenyl)-5-ethylthiophen-2-ylmethyl)-N′-(1H-quinolin-4-one)propane-1,3-diamine] | 0.13 to 8 (≈ 0.282 to 17.4 µM)
64 (≈ 147 µM) | 0.06 (≈ 0.138 µM) | 0.06 to 0.5 (≈ 0.138 to 1.15 µM) | 0.25 (≈ 0.576 µM) | – | – | – | – | CCc1sc(CNCCCNc2cc(=O)c3ccccc3[nH]2)c(C)c1Br [Example 5, N-(4-bromo-5-ethyl-3-methylthiophen-2-ylmethyl)-N′-(1H-quinolin-4-one)propane-1,3-diamine] | –
64 (≈ 135 µM) | 0.13 (≈ 0.274 µM) | 0.06 to 0.5 (≈ 0.126 to 1.05 µM) | 0.13 (≈ 0.274 µM) | – | – | – | – | Cc1c(CNCCCNc2cc(=O)c3ccccc3[nH]2)sc(C(F)(F)F)c1Br [Example 8, N-(4-bromo-3-methyl-5-trifluoromethylthiophen-2-ylmethyl)-N′-(1H-quinolin-4-one)propane-1,3-diamine] | –
16 (≈ 37.8 µM) | 0.13 (≈ 0.307 µM) | 0.06 to 0.5 (≈ 0.142 to 1.18 µM) | 0.5 (≈ 1.18 µM) | ≤ 200 | – | – | – | C=C(F)c1sc(CNCCCNc2nc3ccccc3[nH]2)c(C)c1Br [Example 22, N-(4-bromo-5-(1-fluorovinyl)-3-methylthiophen-2-ylmethyl)-N′-(1H-benzimidazole)propane-1,3-diamine] | –
16 (≈ 37 µM) | 0.06 (≈ 0.139 µM) | 0.06 to 0.5 (≈ 0.139 to 1.16 µM) | 0.06 (≈ 0.139 µM) | – | – | – | – | C=Cc1sc(CNCCCNc2cc(=O)c3ccccc3[nH]2)c(C)c1Br [Example 3, N-(4-bromo-3-methyl-5-vinylthiophen-2-ylmethyl)-N′-(1H-quinolin-4-one)propane-1,3-diamine] | –
4 (≈ 8.88 µM) | 0.06 (≈ 0.133 µM) | 0.06 to 0.5 (≈ 0.133 to 1.11 µM) | 0.06 (≈ 0.133 µM) | – | – | – | – | C=C(F)c1sc(CNCCCNc2cc(=O)c3ccccc3[nH]2)c(C)c1Br [Example 4, N-(4-bromo-5-(1-fluorovinyl)-3-methylthiophen-2-ylmethyl)-N′-(1H-quinolin-4-one)propane-1,3-diamine] | 0.13 to 8 (≈ 0.289 to 17.8 µM)
64 (≈ 151 µM) | 0.06 (≈ 0.141 µM) | 0.06 to 0.5 (≈ 0.141 to 1.18 µM) | 0.25 (≈ 0.589 µM) | ≤ 200 | – | – | – | C=C(F)c1sc(CNCCCNc2nc3ncccc3[nH]2)c(C)c1Br [Example 17, N-(4-bromo-5-(1-fluorovinyl)-3-methylthiophen-2-ylmethyl)-N′-(1H-imidazo[4,5-b]pyridin-2-yl)-propane-1,3-diamine] | –
64 (≈ 140 µM) | 1 (≈ 2.19 µM) | 1 to 2 (≈ 2.19 to 4.38 µM) | 1 (≈ 2.19 µM) | – | – | – | – | Cc1c(CNCCCNc2cc(=O)c3ccccc3[nH]2)sc(C(F)F)c1Br [Example 7, N-(4-bromo-5-difluoromethyl-3-methylthiophen-2-ylmethyl)-N′-(1H-quinolin-4-one)propane-1,3-diamine] | –
64 (≈ 140 µM) | 0.06 (≈ 0.131 µM) | 0.06 to 0.5 (≈ 0.131 to 1.09 µM) | 0.06 (≈ 0.131 µM) | – | – | – | – | CC#Cc1c(CNCCCNc2cc(=O)c3ccccc3[nH]2)sc(CC)c1Br [Example 9, N-(4-bromo-3-(1-propynyl)-5-ethylthiophen-2-ylmethyl)-N′-(1H-quinolin-4-one)propane-1,3-diamine] | –
8 (≈ 18.6 µM) | 1 (≈ 2.33 µM) | 1 to 2 (≈ 2.33 to 4.66 µM) | 4 (≈ 9.32 µM) | – | – | – | – | Cc1c(CNCCCNc2nc3ccccc3[nH]2)sc(C(F)F)c1Br [Example 23, N-(4-bromo-5-difluoromethyl-3-methylthiophen-2-ylmethyl)-N′-(1H-benzimidazole)propane-1,3-diamine] | 0.13 to 8 (≈ 0.303 to 18.6 µM)
32 (≈ 65.9 µM) | 0.25 (≈ 0.515 µM) | 0.06 to 0.5 (≈ 0.124 to 1.03 µM) | 0.06 (≈ 0.124 µM) | – | – | – | – | Cc1c(CNCCCNc2cc(=O)c3ccccc3[nH]2)sc(Br)c1Br [Example 1, N-(4,5-Dibromo-3-methylthiophen-2-ylmethyl)-N′-(1H-quinolin-4-one)propane-1,3-diamine] | –
– | – | – | – | – | > 64 | 8 (≈ 17 µM) | 1 (≈ 2.12 µM) | O=c1cc(NCCCNCc2cc(Br)c(Br)s2)[nH]c2ccccc12 [Example 37] | –
> 64 | 0.13 (≈ 0.302 µM) | 0.06 to 0.5 (≈ 0.139 to 1.16 µM) | 0.06 (≈ 0.139 µM) | – | – | – | – | C#Cc1sc(CNCCCNc2cc(=O)c3ccccc3[nH]2)c(C)c1Br [Example 2, N-(4-bromo-5-ethynyl-3-methylthiophen-2-ylmethyl)-N′-(1H-quinolin-4-one)propane-1,3-diamine] | –
32 (≈ 71.7 µM) | 0.06 (≈ 0.134 µM) | 0.06 to 0.5 (≈ 0.134 to 1.12 µM) | 0.13 (≈ 0.291 µM) | – | – | – | – | Cc1c(CNCCCNc2cc(=O)c3ccccc3[nH]2)sc(C2CC2)c1Br [Example 6, N-(4-bromo-5-cyclopropyl-3-methylthiophen-2-ylmethyl)-N′-(1H-quinolin-4-one)propane-1,3-diamine] | –
8 (≈ 17.9 µM) | 0.5 (≈ 1.12 µM) | 0.06 to 0.5 (≈ 0.134 to 1.12 µM) | 1 (≈ 2.24 µM) | – | – | – | – | Cc1c(CNCCCNc2nc3ccccc3[nH]2)sc(C(F)(F)F)c1Br [Example 24, N-(4-bromo-3-methyl-5-trifluoromethylthiophen-2-ylmethyl)-N′-(1H-benzimidazole)propane-1,3-diamine] | 0.13 to 8 (≈ 0.291 to 17.9 µM)
– | – | – | – | – | > 64 | 2 (≈ 3.64 µM) | 1 (≈ 1.82 µM) | O=c1cc(NCCCNCc2sc(Br)c(Br)c2Br)[nH]c2ccccc12 [Example 65] | –
